Data from patent US20110268721A1, “Therapy Regimens, Dosing Regimens And Stable Medicaments For The Treatment Of Pompe Disease” (Amicus Therapeutics, Inc., priority 2008, published 2011).
Structures can show the parent of a compound that is named as a salt.

How the values were obtained:
[1] = biological target: T1, recombinant human GAA (Myozyme®, Genzyme Corp.) (Homo sapiens, UniProt P10253); assay: SYPRO Orange thermal stability assay (heat-induced denaturation); type: binding
T1 construct: purchased Genzyme Corp
Text: The thermal stability assay utilizes heat to induce protein denaturation, which is monitored using a SYPRO Orange dye that fluoresces upon binding to hydrophobic amino acids (which are not exposed in a folded protein).
FIG. 5 depict the results of a thermal stability assay that utilizes heat to induce protein denaturation, which is monitored using a SYPRO Orange dye that fluoresces upon binding to hydrophobic amino acids (which are not exposed in a folded protein).
Denaturation is monitored using a SYPRO Orange dye that fluoresces upon binding to hydrophobic amino acids (which are not exposed in a folded protein).
The thermal stability was performed at pH 7.4 for two formulations, which corresponds to the pH of the ER.
A thermal stability experiment as generally described in Example 1 was performed on four compositions:
(1) Myozyme only composition;

[2] = test system: GAA KO mice; assay: Myozyme tissue uptake (GAA activity, 4-MUG) in GAA KO mice with or without oral 1-DNJ-HCl; type: in vivo
Text: Enzymatic activity as determined using a 4-MUG fluorogenic substrate assay.

[3] = test system: GAA KO mice; assay: Tissue glycogen reduction in GAA KO mice; type: in vivo; settings: Myozyme 40 mg/kg IV every other week for 8 weeks, 1-DNJ-HCl 30 mg/kg oral 30 minutes prior where co-administered
Description: Glycogen reduction with Myozyme™ alone was 93±1%, 41±4%, 69±3%, and 18±4%, in heart, diaphragm, soleus, and quadriceps, respectively, relative to untreated mice.
Twelve-week old male GAA KO mice were administered a single dose of Myozyme™ (40 mg/kg) via bolus tail vein injection every other week for 8 weeks. To prevent anaphylaxis, before the third and fourth Myozyme™ injection, diphenhydramine (10 mg/kg intraperitoneally) was administered 10 min before Myozyme™ injection. […] Mice were euthanized 14 days after the last Myozyme™ administration.
Glycogen levels in heart, diaphragm, soleus, and quadriceps were then measured. […] Briefly, homogenates were prepared by homogenizing ˜50 mg tissue for 3-5 seconds on ice with a microhomogenizer in 200 μL deionized water. Supernatants were heat denatured (99° C. for 10 min) to remove endogenous amyloglucosidase activity. Denatured lysates (4 μL) were then analyzed in duplicate by addition of 36 μL water with and without 10 μL of 800 U/mL of amyloglucosidase (Sigma Aldrich, St. Louis, Mo.) and incubated for 1 hour at 50° C. The reaction was stopped by inactivation at 100° C. for 10 min. Finally, 200 μL of glucose reagent (Sigma) was added absorbance read at 340 nm on Spectramax. A standard curve ranging from 5 μg/mL to 400 μg/mL Type III rabbit liver glycogen (Sigma) was run each day for conversion of absorbance to absolute glycogen units. Simultaneously, the amount of protein was determined in tissue homogenates using the Micro BCA Protein Assay (Pierce, Rockford, Ill.) following the manufacturer's instructions. The glycogen content of each sample was normalized to protein, and data were finally expressed as micrograms of glycogen per milligram of protein (μg/mg protein).

[4] = stored at 2 to 8° C.; patient instructions for Myozyme; cited from earlier work
[5] = reported value; cited from earlier work
[6] = biological target: T1, recombinant human GAA (Myozyme®, Genzyme Corp.); assay: SYPRO Orange protein folding monitored at 37° C. over 24 hours; type: binding; settings: plasma pH (7.4), 100 μM 1-DNJ-HCl
Description: FIG. 2B depicts a parallel SYPRO Orange thermal stability experiment to determine if the loss of enzyme activity shown in FIG. 2A, particularly the loss of Myozyme activity at ER pH (7.4), correlates with protein unfolding and denaturation.
In order to determine if loss of initial enzyme activity is correlated to failure to maintain a proper conformation, a SYPRO Orange thermal stability experiment was performed on the samples above as generally described in Example 1. […] Based on this experiment, the % of GAA folded was estimated and plotted in FIG. 2B.

[7] = test system: GAA KO mouse; assay: GAA activity in heart and diaphragm tissue of GAA KO mouse, rhGAA with or without 1-DNJ-HCl; type: in vivo
Description: Three groups of GAA KO Mice were administered one of the following formulations: […]
(1) Control (No Treatment);
Heart and Diaphragm tissue homogenates were harvested and rhGAA activity was measured using the fluorogenic substrate (4-MUG).

[8] = biological target: T2, rhGAA (Myozyme™) (Homo sapiens, UniProt P10253); assay: rhGAA enzyme inactivation in citrate anti-coagulated whole blood at 37° C. (4-MUG); type: biochemical
T2 construct: purchased Genzyme Corp; host or cells: Chinese hamster ovary cell line
Description: Aliquots were collected at 0, 2, 4, 8 and 24 hrs and centrifuged to obtain plasma. These plasma samples were then diluted in potassium acetate buffer (pH 4.0) and assayed for GAA activity using the 4-methylumbeliferyl-α-glucose (4-MUG) fluorogenic substrate. The measured GAA activity for individual samples at each time point was normalized to the 0 hr and expressed as % of initial activity. Data from 4 independent experiments were analyzed to obtain the mean (and standard deviation) and plotted versus time to assess the loss of enzyme activity over this time course.
Aliquots were collected at 0, 3 and 6 hrs and centrifuged to obtain plasma. These plasma samples were then diluted in potassium acetate buffer (pH 4.0) and assayed for GAA activity using the 4-methylumbeliferyl-α-glucose (4-MUG) fluorogenic substrate. The measured GAA activity for individual samples at each time point was normalized to the 0 hr and expressed as % of initial activity.
Based on human plasma PK data, these concentrations are readily obtainable in the clinic.

[9] = biological target: T3, GAA in cell lines derived from late-onset Pompe patients with the IVS 1 (−13 T>G) splicing defect (Homo sapiens, UniProt P10253); assay: GAA levels in cell lines derived from late-onset Pompe patients; type: cell-based; settings: IVS 1 (−13 T>G) splicing mutation
T3 construct: endogenous in cells

Row | Compound | thermal stability of Myozyme alone ([1]; lysosomal pH (5.2) versus ER pH (7.4), no ASSC) | Myozyme tissue uptake (as a measure of GAA activity) ([2]; Myozyme 10 mg/kg IV once per week, 7 days post injection, all groups) | glycogen reduction in diaphragm relative to untreated mice [3] [%] | glycogen reduction in heart relative to untreated mice [3] [%] | glycogen reduction in quadriceps relative to untreated mice [3] [%] | glycogen reduction in soleus relative to untreated mice [3] [%] | time the product is stable on storage [4] | plasma half-life of Myozyme (reported) [5] | thermal stability of rhGAA (heat required to denature) ([1]; pH 7.4, 100 μM 1-DNJ-HCl, compared to formulation without the ASSC) | prevention of GAA denaturation and loss of enzyme activity [6] | effect of co-administration on Myozyme tissue uptake ([2]; 10, 100, 1000 mg/kg oral 1-DNJ-HCl with Myozyme 10 mg/kg IV, up to 7 days post injection) | increase of uptake of rhGAA in heart and diaphragm ([7]; GAA KO mice, 100 mg/kg p.o., regimen including administration prior to rhGAA injection) | rhGAA uptake in the heart and diaphragm (GAA activity) ([7]; GAA KO mouse, co-administered with rhGAA versus ERT monotherapy) | rhGAA activity in whole blood with 1-DNJ-HCl ([8]; 50 μM 1-DNJ-HCl, 37° C., throughout 24 hrs) | stabilization of rhGAA in whole blood ([8]; high 1-DNJ-HCl concentrations (50 and 100 μM), range tested 0-100 μM) | GAA levels in patient-derived cell lines [9]
1 | Myozyme: alglucosidase alfa, human acid α-glucosidase produced by recombinant DNA technology in a Chinese hamster ovary cell line (Genzyme) | much more stable at lysosomal pH (5.2) than at ER pH (7.4) | declined | 41±4 | 93±1 | 18±4 | 69±3 | up to 24 hours | more than 3 hrs | – | – | – | – | – | – | – | –
2 | OC[C@H]1NC[C@H](O)[C@@H](O)[C@@H]1O [1-DNJ-HCl, 1-deoxynorjirimycin hydrochloride] | – | – | – | – | – | – | – | – | required significantly more heat to denature | can prevent GAA denaturation and loss of enzyme activity | dose-dependent increase | approximately 2 fold | increased | remained completely active | best for stabilizing rhGAA and preventing enzyme inactivation | increased GAA levels alone and in combination with hrGAA
